How the values were obtained:
Assay type in all cases: cell-based
D(2) dopamine receptor = D(2) dopamine receptor (Homo sapiens, UniProt P14416); experiment: Displacement of [3H]-raclopride from recombinant human D2L receptor expressed in HEK293 cells measured after 1 hr by microbeta counting method
[1] = target: T1, 5-hydroxytryptamine receptor 1A (Homo sapiens, UniProt P08908); experiment: Displacement of [3H]-8-OHDPAT from recombinant human 5HT1A receptor expressed in HEK293 cells measured after 1 hr by microbeta counting method
T1 sequence (P08908 whole entry): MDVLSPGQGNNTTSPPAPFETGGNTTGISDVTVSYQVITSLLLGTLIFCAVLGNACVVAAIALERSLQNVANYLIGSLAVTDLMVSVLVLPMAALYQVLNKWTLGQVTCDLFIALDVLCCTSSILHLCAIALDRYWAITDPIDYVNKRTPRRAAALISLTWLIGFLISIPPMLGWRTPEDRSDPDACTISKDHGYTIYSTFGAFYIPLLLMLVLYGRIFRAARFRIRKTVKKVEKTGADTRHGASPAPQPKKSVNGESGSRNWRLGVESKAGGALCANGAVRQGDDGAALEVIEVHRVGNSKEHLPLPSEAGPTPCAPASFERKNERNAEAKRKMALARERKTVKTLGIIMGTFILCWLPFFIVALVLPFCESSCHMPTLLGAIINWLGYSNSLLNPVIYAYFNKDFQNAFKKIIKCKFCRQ

[2] = target: 5-hydroxytryptamine receptor 2A (Homo sapiens, UniProt P28223); experiment: Displacement of [3H]-ketanserin from recombinant human 5HT2A receptor expressed in CHOK1 cells measured after 1 hr by microbeta counting method
Sequence of 5-hydroxytryptamine receptor 2A (P28223 whole entry): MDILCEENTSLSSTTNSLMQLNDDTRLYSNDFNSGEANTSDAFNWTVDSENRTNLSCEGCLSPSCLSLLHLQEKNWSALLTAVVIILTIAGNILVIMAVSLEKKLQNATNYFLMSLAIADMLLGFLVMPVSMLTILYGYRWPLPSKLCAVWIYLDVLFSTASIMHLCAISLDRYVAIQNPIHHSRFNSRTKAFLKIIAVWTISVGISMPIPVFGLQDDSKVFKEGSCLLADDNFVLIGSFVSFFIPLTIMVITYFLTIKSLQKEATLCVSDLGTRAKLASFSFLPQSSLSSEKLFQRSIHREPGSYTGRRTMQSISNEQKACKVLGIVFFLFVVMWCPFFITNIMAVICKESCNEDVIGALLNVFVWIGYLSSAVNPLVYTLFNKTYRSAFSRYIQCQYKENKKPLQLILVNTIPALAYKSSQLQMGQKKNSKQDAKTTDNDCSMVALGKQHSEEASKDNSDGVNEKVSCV

[3] = target: 5-hydroxytryptamine receptor 6 (Homo sapiens, UniProt P50406); experiment: Displacement of [3H]-LSD from recombinant human 5HT6 receptor expressed in HEK293 cells measured after 1 hr by microbeta counting method
Sequence of 5-hydroxytryptamine receptor 6 (P50406 whole entry): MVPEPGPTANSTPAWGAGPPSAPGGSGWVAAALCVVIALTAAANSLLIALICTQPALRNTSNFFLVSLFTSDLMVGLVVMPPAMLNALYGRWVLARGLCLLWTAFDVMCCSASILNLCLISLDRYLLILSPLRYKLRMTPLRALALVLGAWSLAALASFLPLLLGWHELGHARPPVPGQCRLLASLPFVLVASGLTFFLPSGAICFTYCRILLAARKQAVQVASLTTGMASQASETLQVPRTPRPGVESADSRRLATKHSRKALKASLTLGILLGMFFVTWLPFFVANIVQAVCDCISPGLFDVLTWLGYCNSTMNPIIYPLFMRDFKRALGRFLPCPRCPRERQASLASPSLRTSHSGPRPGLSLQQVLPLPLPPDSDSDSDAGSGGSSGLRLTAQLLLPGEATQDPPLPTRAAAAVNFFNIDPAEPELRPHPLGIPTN

[4] = target: 5-hydroxytryptamine receptor 7 (Homo sapiens, UniProt P34969); experiment: Displacement of [3H]-5-CT from recombinant human 5HT7B receptor expressed in HEK293 cells measured after 1 hr by microbeta counting method
Sequence of 5-hydroxytryptamine receptor 7 (P34969 whole entry): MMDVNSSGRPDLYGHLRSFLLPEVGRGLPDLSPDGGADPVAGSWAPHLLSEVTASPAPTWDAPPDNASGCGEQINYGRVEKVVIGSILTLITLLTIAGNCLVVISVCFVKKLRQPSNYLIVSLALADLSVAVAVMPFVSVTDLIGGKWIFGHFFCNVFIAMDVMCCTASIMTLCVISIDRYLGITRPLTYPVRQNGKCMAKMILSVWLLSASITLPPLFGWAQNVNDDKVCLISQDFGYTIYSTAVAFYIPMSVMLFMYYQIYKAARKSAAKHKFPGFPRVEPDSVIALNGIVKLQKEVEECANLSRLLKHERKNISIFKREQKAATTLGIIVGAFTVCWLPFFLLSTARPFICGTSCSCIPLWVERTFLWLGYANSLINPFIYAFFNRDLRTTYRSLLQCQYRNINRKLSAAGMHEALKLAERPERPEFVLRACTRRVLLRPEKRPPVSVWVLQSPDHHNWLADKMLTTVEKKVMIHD

Sequence of D(2) dopamine receptor (P14416 whole entry): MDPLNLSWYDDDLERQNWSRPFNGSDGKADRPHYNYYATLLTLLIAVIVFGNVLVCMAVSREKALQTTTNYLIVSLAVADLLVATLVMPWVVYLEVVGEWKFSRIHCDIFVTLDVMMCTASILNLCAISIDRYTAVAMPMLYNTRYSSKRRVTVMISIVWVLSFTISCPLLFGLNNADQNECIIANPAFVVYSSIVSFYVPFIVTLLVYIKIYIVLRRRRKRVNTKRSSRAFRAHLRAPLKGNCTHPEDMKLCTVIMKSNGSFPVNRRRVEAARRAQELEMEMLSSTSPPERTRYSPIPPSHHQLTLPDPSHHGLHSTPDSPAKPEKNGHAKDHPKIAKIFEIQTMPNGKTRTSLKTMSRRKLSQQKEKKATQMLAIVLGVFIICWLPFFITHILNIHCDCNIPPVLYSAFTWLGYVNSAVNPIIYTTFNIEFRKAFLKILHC

SMILES | Ki (D(2) dopamine receptor) [µM] | Ki [1] [µM] | Ki [2] [µM] | Ki [3] [µM] | Ki [4] [µM]
O=C1c2cccc3cccc(c23)N1CCCCCCN1CCN(c2ccccc2[N+](=O)[O-])CC1 | 0.431 | 9.47 | 3.98 | 0.952 | 0.696
COc1ccc(N2CCN(CCCCCCN3C(=O)c4cccc5cccc3c45)CC2)cc1 | 0.18 | 0.291 | 1.93 | 3.67 | 3.74
COc1cccc(N2CCN(CCCCCCN3C(=O)c4cccc5cccc3c45)CC2)c1 | 0.114 | 0.047 | 0.652 | 1.7 | 0.366
O=S1(=O)c2cccc3cccc(c23)N1CCCCCCN1CCN(c2ccccn2)CC1 | 0.118 | 0.035 | 0.443 | 0.182 | 0.344
O=C1c2cccc3cccc(c23)N1CCCCCCN1CCN(c2ncccn2)CC1 | 0.188 | 0.094 | 0.043 | 5.25 | 0.475
O=[N+]([O-])c1ccccc1N1CCN(CCCCCCN2c3cccc4cccc(c34)S2(=O)=O)CC1 | 0.264 | 0.482 | 0.533 | 0.494 | 0.822
COc1ccccc1N1CCN(CCCCCCn2c(=O)n3c4c(cccc42)CCC3)CC1 | 0.002 | 0.019 | 0.456 | 3.27 | 0.291
CCOc1ccccc1N1CCN(CCCCCCN2c3cccc4cccc(c34)S2(=O)=O)CC1 | 0.03 | 0.048 | 0.578 | 0.476 | 0.034
O=C1c2cccc3cccc(c23)N1CCCCCCN1CCN(c2ccccn2)CC1 | 0.867 | 0.032 | 0.892 | 1.46 | 0.184
O=C1c2cccc3cccc(c23)C(=O)N1CCCCCCN1CCN(c2ccccc2[N+](=O)[O-])CC1 | 0.141 | 0.373 | 1.92 | 1.41 | 0.71
CCOc1ccccc1N1CCN(CCCCCCN2C(=O)c3cccc4cccc2c34)CC1 | 0.011 | 0.022 | 0.717 | 1.92 | 0.084
O=C1c2cccc3cccc(c23)C(=O)N1CCCCCCN1CCN(c2ccccn2)CC1 | 1.3 | 0.172 | 0.563 | 1.97 | 1.2
CCOc1ccccc1N1CCN(CCCCCCN2C(=O)c3cccc4cccc(c34)C2=O)CC1 | 0.027 | 0.028 | 0.461 | 0.246 | 0.073
COc1ccccc1N1CCN(CCCCCCN2C(=O)c3cccc4cccc(c34)C2=O)CC1 | 0.01 | 0.02 | 0.337 | 0.671 | 0.266
O=C1c2cccc3cccc(c23)N1CCCCCCN1CCN(c2cccc3cccnc23)CC1 | 0.082 | 0.022 | 0.222 | 0.999 | 0.119
COc1ccc(N2CCN(CCCCCCN3C(=O)c4cccc5cccc(c45)C3=O)CC2)cc1 | 40 | 3.57 | 60.1 | 5.76 | 116
COc1cccc(N2CCN(CCCCCCN3C(=O)c4cccc5cccc(c45)C3=O)CC2)c1 | 0.271 | 0.047 | 0.334 | 0.347 | 0.371

From ChEMBL document CHEMBL4387768, “New dual ligands for the D2 and 5-HT1A receptors from the group of 1,8-naphthyl derivatives of LCAP” (Bioorg Med Chem Lett, 2019)
